What all share (assay): MIC, broth microdilution growth inhibition
What all share (format): cell-based
What all share (settings): Mueller-Hinton broth, 37° C., 18 h, unit assumed
For orientation: In broth dilution the organism is exposed to a series of concentrations in liquid medium.

Assay [1] deals with E. coli D1-209 Tet R. As to the method: (§1) Growth inhibitory activity was determined on liquid medium by the antibiotic dilution technique using 96-well microtiter system plates containing two-fold dilutions of antibiotic-agent in 0.2 ml. of Mueller-Hinton broth. Plates were inoculated with each test organism to yield a final inoculum of 5×10^5 CFU/ml and were incubated aerobically at 37° C. for 18 h. The MIC was defined as the lowest concentration of antibacterial agent that inhibited development of visible growth in the microdilution wells. GAR936 can be prepared e.g. as in J. Med Chem 1994, 37 184-188. Minocyline is available from e.g. Aldrich.

Assay [2] relates to E. faecalis ATCC 29212. As to the method:
as §1

For assay [3], the system named is S. pneumoniae 157. How it is done: as §1
The test system of assay [4] is S. pneumoniae GFX01778 Tet R. As to the method: as §1
The test system of assay [5] is A. calcoaceticus 1726. How it is done: as §1
Assay [6] deals with E. faecium 494. How it is done: as §1
Assay [7] concerns K. Pneumoniae 3226. How it is done: as §1
The subject of assay [8] is S. aureus ATCC 29213. How it is done: as §1
For assay [9], the system named is E. coli 851E. How it is done: as §1
The subject of assay [10] is P. aeruginosa 3808. As to the method: as §1
Assay [11] deals with E. coli D1-299 Tet R. How it is done: as §1
Assay [12] has as its system M. catarrhalis ATCC 23246. How it is done: as §1
Assay [13] deals with H. influenzae ATCC 4927. As to the method:
as §1

Assay [14] concerns E. coli 851ML308-225. How it is done: as §1
Assay [15] concerns E. faecium 97 Tet R. As to the method:
as §1

Assay [16] deals with S. aureus GFX01596 Tet R. As to the method: as §1
The subject of assay [17] is E. faecalis 73 Tet R. As to the method:
as §1

These results are taken from patent US8211937B2, “7-pyrollyl 9-aminoacyl tetracycline compounds and methods of use thereof” (Paratek Pharmaceuticals, Inc., priority 2001, dated 2012).

Converted amounts (≈) assume the structure as drawn.

For `CN(C)[C@@H]1C(O)=C(C(N)=O)C(=O)[C@@]2(O)C(O)=C3C(=O)c4c(O)ccc(-n5ccc(C#N)c5)c4C[C@H]3C[C@@H]12` [Compound A, [4S-(4aα,5aα,12aα)]-7-(3-Cyanopyrrol-1-yl)-4-(Dimethylamino)-1,4,4a,5,5a,6,11,12a-octahydro-3,10,12,12a-tetrahydroxy-1,11-dioxo-2-naphthacenecarboxamide], the MIC in assay [1] was 16 µg/mL (≈ 31.7 µM); in assay [2] it was 2 µg/mL (≈ 3.96 µM); in assay [3] it was 0.015 µg/mL (≈ 0.0297 µM); in assay [4], 2 µg/mL (≈ 3.96 µM); in assay [5], 8 µg/mL (≈ 15.9 µM); in assay [6] it was 8 µg/mL (≈ 15.9 µM). Besides, the MIC is more than 128 µg/mL in assay [7]; 0.015 µg/mL (≈ 0.0297 µM) in assay [8]; 1 µg/mL (≈ 1.98 µM) in assay [9]; more than 128 µg/mL in assay [10]; 4 µg/mL (≈ 7.93 µM) in assay [11]; 0.001 µg/mL (≈ 0.00198 µM) in assay [12]. In addition, the MIC in [13] was found to be 0.5 µg/mL (≈ 0.991 µM); in assay [14], 0.5 µg/mL (≈ 0.991 µM); in assay [15] it was 8 µg/mL (≈ 15.9 µM); in assay [16], 0.5 µg/mL (≈ 0.991 µM); in [17] it was 4 µg/mL (≈ 7.93 µM).
`CN(C)[C@@H]1C(O)=C(C(N)=O)C(=O)[C@@]2(O)C(O)=C3C(=O)c4c(O)ccc(-n5ccc(C=O)c5)c4C[C@H]3C[C@@H]12` [Compound B, [4S-(4aα,5aα,12aα)]-4-(Dimethylamino)-7-(1H-pyrrol-1-yl-3-carboxaldehyde)-1,4,4a,5,5a,6,11,12a-octahydro-3,10,12,12a-tetrahydroxy-1,11-dioxo-2-naphthacenecarboxamide]: the MIC in assay [1] was more than 128 µg/mL; in assay [2] it was 2 µg/mL (≈ 3.94 µM); in assay [3], 0.015 µg/mL (≈ 0.0296 µM); in assay [4], 2 µg/mL (≈ 3.94 µM); in assay [5], more than 128 µg/mL; in assay [6], 32 µg/mL (≈ 63.1 µM). The MIC is more than 128 µg/mL in assay [7]; 0.015 µg/mL (≈ 0.0296 µM) in assay [8]; 1 µg/mL (≈ 1.97 µM) in assay [9]; more than 128 µg/mL in [10]; 32 µg/mL (≈ 63.1 µM) in [11]; 0.008 µg/mL (≈ 0.0158 µM) in assay [12]. The MIC in assay [13] is 1 µg/mL (≈ 1.97 µM); in assay [14], 0.5 µg/mL (≈ 0.985 µM); in assay [15], more than 128 µg/mL; in assay [16] it was 0.25 µg/mL (≈ 0.493 µM); in assay [17] it was 8 µg/mL (≈ 15.8 µM).
`CN(C)CC(=O)Nc1cc(-n2ccc(C=O)c2)c2c(c1O)C(=O)C1=C(O)[C@]3(O)C(=O)C(C(N)=O)=C(O)[C@@H](N(C)C)[C@@H]3C[C@@H]1C2` [Compound C]: the MIC in [1] was 1 µg/mL (≈ 1.65 µM); in [2], 0.125 µg/mL (≈ 0.206 µM); in [3], 0.015 µg/mL (≈ 0.0247 µM); in assay [4] it was 0.03 µg/mL (≈ 0.0494 µM); in assay [5], 16 µg/mL (≈ 26.3 µM); in assay [6], 0.25 µg/mL (≈ 0.411 µM). In addition, the MIC in [7] worked out at 125 µg/mL (≈ 206 µM); in [8], 0.125 µg/mL (≈ 0.206 µM); in assay [9], 1 µg/mL (≈ 1.65 µM); in [10] it was 32 µg/mL (≈ 52.7 µM); in [11] it was 16 µg/mL (≈ 26.3 µM); in [12] it was 0.002 µg/mL (≈ 0.00329 µM). Also, the MIC is 1 µg/mL (≈ 1.65 µM) in assay [13]; 0.03 µg/mL (≈ 0.0494 µM) in assay [14]; 0.06 µg/mL (≈ 0.0987 µM) in [15]; 4 µg/mL (≈ 6.58 µM) in assay [16]; 0.004 µg/mL (≈ 0.00658 µM) in assay [17].
For `CN(C)c1cc(NC(=O)CNC(C)(C)C)c(O)c2c1C[C@H]1C[C@H]3[C@H](N(C)C)C(O)=C(C(N)=O)C(=O)[C@@]3(O)C(O)=C1C2=O` [GAR-936], the MIC was 0.5 µg/mL (≈ 0.854 µM) in assay [1]; 0.5 µg/mL (≈ 0.854 µM) in assay [2]; 0.25 µg/mL (≈ 0.427 µM) in [3]; 0.06 µg/mL (≈ 0.102 µM) in [4]; 32 µg/mL (≈ 54.6 µM) in [5]; 0.5 µg/mL (≈ 0.854 µM) in assay [6]. The MIC in [7] was 2 µg/mL (≈ 3.41 µM); in assay [8] it was 0.5 µg/mL (≈ 0.854 µM); in [9], 1 µg/mL (≈ 1.71 µM); in assay [10], 32 µg/mL (≈ 54.6 µM); in assay [11], 0.5 µg/mL (≈ 0.854 µM); in [12], 0.12 µg/mL (≈ 0.205 µM). Besides, the MIC stood at 1 µg/mL (≈ 1.71 µM) in assay [13], 0.5 µg/mL (≈ 0.854 µM) in assay [15], 1 µg/mL (≈ 1.71 µM) in assay [16] and 0.5 µg/mL (≈ 0.854 µM) in assay [17].
Regarding `CN(C)c1ccc(O)c2c1C[C@H]1C[C@H]3[C@H](N(C)C)C(=O)C(C(N)=O)=C(O)[C@@]3(O)C(=O)C1=C2O` [MINO, Minocyline], the MIC in assay [1] is 16 µg/mL (≈ 35 µM); in assay [2] it was 2 µg/mL (≈ 4.37 µM); in [3], 0.5 µg/mL (≈ 1.09 µM); in [4], 16 µg/mL (≈ 35 µM); in assay [5], 1 µg/mL (≈ 2.19 µM); in assay [6], 32 µg/mL (≈ 69.9 µM). Besides, the MIC in assay [7] was found to be 32 µg/mL (≈ 69.9 µM); in [8], 0.03 µg/mL (≈ 0.0656 µM); in assay [9], 0.5 µg/mL (≈ 1.09 µM); in assay [10], 16 µg/mL (≈ 35 µM); in assay [11], 1 µg/mL (≈ 2.19 µM); in assay [12] it was 0.001 µg/mL (≈ 0.00219 µM). For the same molecule, the MIC in assay [13] is 0.5 µg/mL (≈ 1.09 µM); in assay [14], 0.25 µg/mL (≈ 0.546 µM); in [15], 32 µg/mL (≈ 69.9 µM); in [16] it was 0.12 µg/mL (≈ 0.262 µM); in [17], 32 µg/mL (≈ 69.9 µM).
